Measurements: patent US10822325B2, “Human GLUT5 specific inhibitors and methods of treatment” (UNM RAINFOREST INNOVATIONS, priority 2015, dated 2020)
“Also recorded” adds a separate entry of the source.

Experiments:
GlcPSe,F348H = target: T1, GlcPSe,F348H (Staphylococcus epidermidis, UniProt A0A0H2VG78, F348H); assay: Glucose uptake by GlcPSe,F348H mutant in right-side-out vesicles of JM1100 E. coli cells; type: biochemical, bacterial; details: for effect on GlcPSe,F348H glucose transport: 2 mM compound, RSO vesicles
T1 construct: made in house; host or cells: Escherichia coli JM1100 (pBAD); right-side-out membrane vesicles
Method: (§1) Glucose transport assay for GlcPSe, wild-type and F348H mutant, was performed as described previouslyl^16. GlcPSe was cloned into the pBAD vector (Invitrogen) with C-terminal 6×His tag. F348H mutation was done with the site-directed mutagenesis method^37. GlcPSe proteins were expressed in the glucose transporter deficient Escherichia coli strain JM1100. Cells were grown at 37° C., in Luria Broth medium, with 100 μg/mL ampicillin. Protein expression was induced with 0.3 mM L-arabinose at O.D.600 nm 0.6. After 3 hours, cells were harvested by centrifugation at 2,500 g for 5 min. The right-side-out (RSO) membrane vesicles of JM1100 E. coli cells were prepared as described previouslyl^16,39,40. Transport assay was initiated by the addition of ^14C-radiolabeled glucose (Moravek Biochemicals) to 50 μL RSO vesicles in 100 mM KPi buffer pH 7.5, at O.D.600 nm of 2.0. After one minute, the transport was stopped and the radioactivity was measured as described below. When inhibitors were used, they were incubated with RSO vesicles 1 minute before transport initiation.
As MSNBA seemed to be specific for GLUT5, we focused on the residues in the MSNBA predicted binding site that were different from GLUT5 compared to GLUT1-4 and GlcPSe. Among these, H387 of GLUT5 potentially interacts with the […] group of MSNBA (FIG. 4b and FIG. 6), but is a Phe in GLUT1-4 as well as GlcPSe (FIG. 4c). To test if this residue is important for MSNBA inhibition, we constructed and expressed three mutant proteins: GlcPSe,F348H, GLUT1F379H, and GLUT5H387F. As with the wild-type proteins, GLUT1F379H and GLUT5H387F were recombinantly produced in insect cells, purified and reconstituted in proteoliposomes. Their transport activity was assayed by the entrance counter-flow method in proteolipsomes. Glucose transport of GlcPSe,F348H was determined in JM1100 E. coli cells in right-side-out (RSO) vesicles.

GlcPSe = target: T2, GlcPSe (Staphylococcus epidermidis, UniProt A0A0H2VG78); assay: Glucose uptake by GlcPSe in right-side-out vesicles of JM1100 E. coli cells; type: biochemical; details: 2 mM compound, RSO vesicles, 30 μM C14-glucose, one minute
T2 construct: made in house; host or cells: Escherichia coli JM1100 (pBAD); right-side-out membrane vesicles
T2 sequence (A0A0H2VG78 1-446): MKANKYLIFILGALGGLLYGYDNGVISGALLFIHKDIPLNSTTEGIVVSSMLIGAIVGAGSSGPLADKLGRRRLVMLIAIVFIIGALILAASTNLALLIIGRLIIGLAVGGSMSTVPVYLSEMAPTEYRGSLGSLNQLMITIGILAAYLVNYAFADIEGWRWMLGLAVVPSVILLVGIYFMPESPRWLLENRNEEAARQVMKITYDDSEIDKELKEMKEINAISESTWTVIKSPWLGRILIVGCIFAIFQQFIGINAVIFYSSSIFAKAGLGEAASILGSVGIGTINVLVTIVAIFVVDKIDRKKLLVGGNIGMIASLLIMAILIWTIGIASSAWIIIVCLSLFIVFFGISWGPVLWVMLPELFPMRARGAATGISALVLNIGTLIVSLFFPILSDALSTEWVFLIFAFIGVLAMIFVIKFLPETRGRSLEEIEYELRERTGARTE
Method: as §1
Given the partial conservation of the MSNBA binding site in other GLUTs and GlcPSe, we checked whether MSNBA inhibits GLUT1-4 or GlcPSe. Glucose transport of GLUT1, GLUT2, GLUT3 and GLUT4 and fructose transport of GLUT2 were assayed by the entrance counter-flow method in proteoliposomes constructed with the respective recombinant human GLUT produced in insect cells. Glucose transport of GlcPSe was measured in right-side-out (RSO) vesicles of JM1100 E. coli cells (that lack endogenous glucose transport) expressing GlcPSe.

T1 sequence (A0A0H2VG78 whole entry F348H): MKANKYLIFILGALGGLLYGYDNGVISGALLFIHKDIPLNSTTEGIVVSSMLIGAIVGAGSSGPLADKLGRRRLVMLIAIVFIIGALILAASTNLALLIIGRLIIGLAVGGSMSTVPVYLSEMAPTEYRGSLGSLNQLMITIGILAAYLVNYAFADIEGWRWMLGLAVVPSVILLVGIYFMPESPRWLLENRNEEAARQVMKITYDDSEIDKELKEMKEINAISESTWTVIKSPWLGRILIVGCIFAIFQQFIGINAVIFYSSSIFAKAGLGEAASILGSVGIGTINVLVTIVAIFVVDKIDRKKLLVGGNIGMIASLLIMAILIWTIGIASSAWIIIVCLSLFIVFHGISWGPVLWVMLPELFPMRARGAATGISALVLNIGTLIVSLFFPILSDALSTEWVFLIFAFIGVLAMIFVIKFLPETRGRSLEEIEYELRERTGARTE

SMILES | effect on GlcPSe,F348H glucose transport (GlcPSe,F348H) | effect on GlcPSe glucose transport (GlcPSe) | inhibition at 2000 µM (GlcPSe,F348H; read-out: inhibition of GlcPSe,F348H transport activity) [%]
C=C1[C@@H](C)[C@H]2[C@H](Cc3ccccc3)NC(=O)[C@]23OC(=O)/C=C/[C@H](O)CCC[C@@H](C)C/C=C/[C@H]3[C@@H]1O [cytochalasin B, reference compound] | decreased cytochalasin B inhibition | inhibited | 
CS(=O)(=O)c1ccc(Nc2ccc3c(c2)OCO3)c([N+](=O)[O-])c1 [MSNBA, N-[4-(methylsulfonyl)-2-nitrophenyl]-1,3-benzodioxol-5-amine] |  | did not affect; also recorded: did not influence | 75
O=C(CCc1ccc(O)cc1)c1c(O)cc(O)cc1O [phloretin, reference compound] | still inhibited | inhibited | 
